These are literature values, as cited in patent US20100056547A1, “OPHTHALMIC COMPOSITIONS COMPRISING dDC” (ALLERGAN, INC., priority 2005, published 2010).

Data set [1] deals with adenoviral strains. To be noted: for inhibition of adenoviral strains: Kaneko et al., J. Jpn. Ophthalmol. Soc. 107:196-201 (2003).
The subject of data set [2] is viral conjunctivitis. To be noted: topical ophthalmic administration; Gordon et al., Cornea 15(5): 546, 1996.

In the case of `Nc1ccn(C[C@@H](CO)OCP(=O)(O)O)c(=O)n1` [HPMPC], in data set [1], the “inhibition of adenoviral strains” value is reported as “inhibited adenoviral strains”.

With `CCCCCCCCCCCCCCCCCCCCCCOCC(C)(COCCCCCCCCCCCCCCCCCCCCCC)CO[C@]1(C(=O)O)C[C@H](OS(=O)(=O)O)[C@@H](NC(C)=O)[C@H]([C@H](OS(=O)(=O)O)[C@@H](COS(=O)(=O)O)OS(=O)(=O)O)O1` [NMSO3], in data set [1], the “inhibition of adenoviral strains” value is reported as “inhibited adenoviral strains”. Further, the “EC50 values (ranking among NMSO3, HPMPC, dDC)” value in data set [1] (adenoviral strains, Kaneko et al. 2003) was “lowest”. Regarding `Nc1ccn(C[C@@H](CO)OCP(=O)(O)O)c(=O)n1` [cidofavir], the “effectiveness in treating viral conjunctivitis” value in data set [2] is listed as “effective”. In the case of `Nc1ccn([C@H]2CC[C@@H](CO)O2)c(=O)n1` [dDC, 2′,3′-Dideoxycytidine], the “inhibition of adenoviral strains” value in data set [1] is on record as “inhibited adenoviral strains”.
